Laboratory results: PubChem BioAssay AID1919016 (Molecular Pharmacology Branch, DTP, NCI, 2023)
Values joined by “and” are separate entries in the source; they are usually repeats but may differ in a detail not shown here. Equal values may be shown once.

System: NCI-H196 complex spheroid growth, percent test/control
Assay: Anticancer human tumor NCI-H196 cell line growth inhibition [AhR];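 further: seven days of drug exposure starting three days after plating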;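 on viability, T/C: 100% = DMSO vehicle control wells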
Conditions: for viability, T/C: stronger effect = lower value
Source text: Multicellular complex tumor spheroid response to aryl hydrocarbon receptor antagonists in combination with a variety of drugs and investigational agents in selected tumor cell lines
The current study was undertaken to assess response to aryl hydrocarbon receptor antagonists in combination with standard-of-care drugs and investigational agents in solid tumor complex spheroid models. Complex spheroids include a stromal component modeled by human endothelial cells (HUVEC) and fibroblasts modeled by human mesenchymal stem cells (MSCs). The concentration ranges selected for each drug and investigational agent were based upon clinically achievable concentrations if the clinical Cmax of the agent was known.
Compounds. The drugs and investigational agents: BAY 2416964 (NSC825713), GNF351 (NSC835774), CH-223191 (NSC835775), CPI-455 (NSC825282), aza-TdCyd (NSC777586), decitabine (NSC127716), belinostat (NSC758774), entinostat (NSC756642), pevonedistat (NSC761192), tazemetostat (NSC777109), talazoparib (NSC765396), olaparib (NSC753686), selinexor (NSC780203), nedisertib (M3814, NSC802822), bortezomib (NSC756655), venetoclax (NSC766270), doxorubicin (NSC123127), elimusertib (BAY189344, NSC800525), ceralasertib (AZD6738, NSC777638), TAK-243 (NSC785004), alisertib (NSC759677), etoposide (NSC141540), topotecan (NSC609699), eribulin (NSC707389), gemcitabine (NSC613327), carboplatin (NSC241240), cisplatin (NSC119875), and SN-38 (NSC673596) were obtained from the National Cancer Institute (NCI) Developmental Therapeutics Program Chemical Repository (32). The FDA-approved anticancer drug set is available from the Developmental Therapeutics Program at https://dtp.cancer.gov/organization/dscb/obtaining/available plates.htm. […] The stock solutions were prepared in dimethyl sulfoxide (DMSO, Sigma-Aldrich, St. Louis, MO, cat. D2650), except for the platinum compounds which were prepared in saline (Quality Biological, Gaithersburg, MD, cat. 114-055-101), at 800-fold the tested concentration and stored at -70 degrees C prior to their use. All drugs and investigational agents were tested over a range starting from a high concentration at or near the clinical Cmax and decreasing in half-log increments. If the clinical Cmax for an agent had not been determined, the highest concentration tested was 10 microM (Table 1).
Cell Culture. All cells were maintained in an incubator at 37 degrees C and 5% CO2 with 95% humidity. The PDC lines were cultured according to standard operating procedures established by the NCI PDMR (https://pdmr.cancer.gov). Briefly, all PDCs were thawed and cultured in Matrigel-coated flasks prepared with a working solution of 1X Ham's F-12 nutrient mix, without supplementation (Invitrogen, Waltham, MA, cat. 11765054), 100 U/mL penicillin-streptomycin (Invitrogen, cat. 15140122), and 2.5% Matrigel (Corning Inc., Corning, NY, cat. 354248) for the first three passages. All PDCs were cultured in complete DMEM/F-12 media containing advanced DMEM/F-12 (Invitrogen, cat. 12634028), 4.9% defined fetal bovine serum, heat inactivated (HyClone Laboratories Inc., Logan, UT, cat. SH30070.03HI), 389 ng/mL hydrocortisone (Sigma-Aldrich, cat. H4001), 9.7 ng/mL human EGF recombinant protein (Invitrogen, cat. PHG0313), 23.4 microg/mL adenine (Sigma-Aldrich, cat. A2786), 97.3 U/mL penicillin-streptomycin (Invitrogen, cat. 15140122), 1.9 mM L-glutamine (Invitrogen, cat. 25030081), and 9.7 microM Y-27632 dihydrochloride (Tocris Bioscience, Bristol, United Kingdom, cat. 1254). The PDCs were cultured in complete DMEM/F12 media without 10 microM Y-27632 dihydrochloride for at least two passages prior to the screen. The established cell lines NCI-H1341 and […] were cultured in DMEM/F-12, HEPES (Invitrogen, cat. 11330032), 5% defined fetal bovine serum (HyClone Laboratories Inc., cat. SH30070.03), ITS premix universal culture supplement [insulin (5 microg/mL), transferrin (5 microg/mL), and selenious acid (5 ng/mL)] […]

[1] = curve of first compound, second compound 0.1 µM
[2] = curve of first compound, second compound 0.316 µM
[3] = curve of first compound, second compound 1 µM
[4] = curve of first compound, second compound 3.16 µM
[5] = curve of first compound, second compound 10 µM
[6] = second compound 0.1 µM, first compound 0.0316 µM
[7] = second compound 0.1 µM, first compound 0.1 µM
[8] = second compound 0.1 µM, first compound 0.316 µM
[9] = second compound 0.1 µM, first compound 1 µM
[10] = second compound 0.1 µM, first compound 3.16 µM
[11] = second compound 0.1 µM, first compound 10 µM
[12] = second compound 0.316 µM, first compound 0.0316 µM
[13] = second compound 0.316 µM, first compound 0.1 µM
[14] = second compound 0.316 µM, first compound 0.316 µM
[15] = second compound 0.316 µM, first compound 1 µM
[16] = second compound 0.316 µM, first compound 3.16 µM
[17] = second compound 0.316 µM, first compound 10 µM
[18] = second compound 1 µM, first compound 0.0316 µM
[19] = second compound 1 µM, first compound 0.1 µM
[20] = second compound 1 µM, first compound 0.316 µM
[21] = second compound 1 µM, first compound 1 µM
[22] = second compound 1 µM, first compound 3.16 µM
[23] = second compound 1 µM, first compound 10 µM
[24] = second compound 3.16 µM, first compound 0.0316 µM
[25] = second compound 3.16 µM, first compound 0.1 µM
[26] = second compound 3.16 µM, first compound 0.316 µM
[27] = second compound 3.16 µM, first compound 1 µM
[28] = second compound 3.16 µM, first compound 3.16 µM
[29] = second compound 3.16 µM, first compound 10 µM
[30] = second compound 10 µM, first compound 0.0316 µM
[31] = second compound 10 µM, first compound 0.1 µM
[32] = second compound 10 µM, first compound 0.316 µM
[33] = second compound 10 µM, first compound 1 µM
[34] = second compound 10 µM, first compound 3.16 µM
[35] = second compound 10 µM, first compound 10 µM

SMILES	IC50 [1] [µM]	IC50 [2] [µM]	IC50 [3] [µM]	IC50 [4] [µM]	IC50 [5] [µM]	viability, T/C [6] [%]	viability, T/C [7] [%]	viability, T/C [8] [%]	viability, T/C [9] [%]	viability, T/C [12] [%]	viability, T/C [13] [%]	viability, T/C [14] [%]	viability, T/C [15] [%]	viability, T/C [18] [%]	viability, T/C [19] [%]	viability, T/C [20] [%]	viability, T/C [21] [%]	viability, T/C [24] [%]	viability, T/C [25] [%]	viability, T/C [26] [%]	further results
O=C(C=Cc1cccc(S(=O)(=O)Nc2ccccc2)c1)NO + Cc1ccccc1N=Nc1ccc(NC(=O)c2ccnn2C)c(C)c1	1.48	1.76	1.72	1.87	2.03	93	100	87.8	62	92.7	96.5	104	69.9	102	94.5	90.4	74.2	93.6	91.9	91.1	viability, T/C [10]: 25.5%; viability, T/C [11]: 0.66%; viability, T/C [16]: 27.4%; viability, T/C [17]: 0.67%; viability, T/C [22]: 23.7%; viability, T/C [23]: 3.01%; viability, T/C [27]: 72%; viability, T/C [28]: 31.3%; viability, T/C [29]: 1.68%; viability, T/C [30]: 87.9%; viability, T/C [31]: 90.8%; viability, T/C [32]: 81.6%; viability, T/C [33]: 72.4%; viability, T/C [34]: 36.4%; viability, T/C [35]: 0.98%
CC1COCCN1c1cc(-c2ccnn2C)c2ccnc(-c3ccn[nH]3)c2n1 (configuration not stated) + CC(CO)NC(=O)c1cc(-c2ccc(Cl)cc2)nn(-c2cnn(C)c2)c1=O	> 1	> 1	> 1	> 1	> 1	101	79.3	72.2	61.1	97.9	78.6	66.3	68.5	101	90.8	77.4	71	98	82.4	80	viability, T/C (second compound 0.1 µM, first compound 0.00316 µM): 104%; viability, T/C (second compound 0.1 µM, first compound 0.01 µM): 109%; viability, T/C (second compound 0.316 µM, first compound 0.00316 µM): 105%; viability, T/C (second compound 0.316 µM, first compound 0.01 µM): 98.9%; viability, T/C (second compound 1 µM, first compound 0.00316 µM): 108%; viability, T/C (second compound 1 µM, first compound 0.01 µM): 104%; viability, T/C (second compound 3.16 µM, first compound 0.00316 µM): 111%; viability, T/C (second compound 3.16 µM, first compound 0.01 µM): 102%; viability, T/C [27]: 66.5%; viability, T/C (second compound 10 µM, first compound 0.00316 µM): 103%; viability, T/C (second compound 10 µM, first compound 0.01 µM): 98.5%; viability, T/C [30]: 107%; viability, T/C [31]: 89.4%; viability, T/C [32]: 74.2%; viability, T/C [33]: 79.8%
O=C(C=Cc1cccc(S(=O)(=O)Nc2ccccc2)c1)NO	–	–	–	–	–	–	–	–	–	–	–	–	–	–	–	–	–	–	–	–	viability, T/C (compound 0.0316 µM): 93.5% and 93.7% and 104%; viability, T/C (compound 0.1 µM): 107% and 95.2% and 101%; viability, T/C (compound 0.316 µM): 78.8% and 87.2% and 93.9%; viability, T/C (compound 1 µM): 61.2% and 73.3% and 75.5%; viability, T/C (compound 3.16 µM): 21.6% and 27.8% and 22.7%; viability, T/C (compound 10 µM): 0.64% and 0.72% and 0.55%; IC50 (curve of compound): 1.32 µM and 1.79 µM and 1.73 µM

Second part, led by results:

IC50 [1] [µM]	IC50 [2] [µM]	IC50 [3] [µM]	IC50 [4] [µM]	IC50 [5] [µM]	SMILES	viability, T/C [6] [%]	viability, T/C [7] [%]	viability, T/C [8] [%]	viability, T/C [9] [%]	viability, T/C [12] [%]	viability, T/C [13] [%]	viability, T/C [14] [%]	viability, T/C [15] [%]	viability, T/C [18] [%]	viability, T/C [19] [%]	viability, T/C [20] [%]	viability, T/C [21] [%]	viability, T/C [24] [%]	viability, T/C [25] [%]	viability, T/C [26] [%]	further results
> 10	> 10	> 10	> 10	> 10	Nc1ccn(C2OC(CO)C(O)C2(F)F)c(=O)n1 (configuration not stated) + Cc1ccccc1N=Nc1ccc(NC(=O)c2ccnn2C)c(C)c1	88.8	85.5	53.4	52.1	91.4	88.2	58.7	54	88.7	90.4	62.5	53.2	93.3	91.3	62.7	viability, T/C [10]: 57.6%; viability, T/C [11]: 59.6%; viability, T/C [16]: 54.5%; viability, T/C [17]: 60.1%; viability, T/C [22]: 56.1%; viability, T/C [23]: 60.2%; viability, T/C [27]: 57.1%; viability, T/C [28]: 55%; viability, T/C [29]: 55.9%; viability, T/C [30]: 85.2%; viability, T/C [31]: 90.8%; viability, T/C [32]: 75.9%; viability, T/C [33]: 61.9%; viability, T/C [34]: 60.1%; viability, T/C [35]: 64.3%
> 10	> 10	> 10	> 10	> 10	COc1cc(Nc2ncc3c(n2)-c2ccc(Cl)cc2C(c2c(F)cccc2OC)=NC3)ccc1C(=O)O + CC(CO)NC(=O)c1cc(-c2ccc(Cl)cc2)nn(-c2cnn(C)c2)c1=O	91.5	107	116	112	103	106	119	113	101	98.9	112	111	107	108	121	viability, T/C [10]: 111%; viability, T/C [11]: 138%; viability, T/C [16]: 127%; viability, T/C [17]: 116%; viability, T/C [22]: 136%; viability, T/C [23]: 134%; viability, T/C [27]: 115%; viability, T/C [28]: 130%; viability, T/C [29]: 132%; viability, T/C [30]: 107%; viability, T/C [31]: 109%; viability, T/C [32]: 126%; viability, T/C [33]: 122%; viability, T/C [34]: 127%; viability, T/C [35]: 131%
